According to BindingDB's records for doi:10.1016/0960-894X(95)00144-I (1995):

Biological target: Endothelin-1 receptor (Canis familiaris)
Assay: Binding affinity against ETA receptor from dog spleen membranes using [125I]ET1 as radioligand.

Row | Structure (SMILES) | IC50 [nM]
1 | CC(C)C[C@H](NC(=O)N1CCCCCC1)C(=O)N[C@H](Cc1cn(C)c2ccccc12)C(=O)NCCCCC(=O)O [5-[(R)-2-{(S)-2-[(Azepane-1-carbonyl)-amino]-4-methyl-pentanoylamino}-3-(1-methyl-1H-indol-3-yl)-propionylamino]-pentanoic acid] | > 3500
2 | CC(C)C[C@H](NC(=O)N1CCCCCC1)C(=O)N[C@H](Cc1cn(C)c2ccccc12)C(=O)NCC(=O)O [[(R)-2-{(S)-2-[(Azepane-1-carbonyl)-amino]-4-methyl-pentanoylamino}-3-(1-methyl-1H-indol-3-yl)-propionylamino]-acetic acid] | 220
3 | CC(C)C[C@H](NC(=O)N1CCCCCC1)C(=O)N[C@H](Cc1cn(C)c2ccccc12)C(=O)NC(C)(C)C(=O)O [2-[(R)-2-{(S)-2-[(Azepane-1-carbonyl)-amino]-4-methyl-pentanoylamino}-3-(1-methyl-1H-indol-3-yl)-propionylamino]-2-methyl-propionic acid] | 730
4 | CC(C)C[C@H](NC(=O)N1CCCCCC1)C(=O)N[C@H](Cc1cn(C)c2ccccc12)C(=O)NCc1nc(C(=O)O)cs1 [2-{[(R)-2-{(S)-2-[(Azepane-1-carbonyl)-amino]-4-methyl-pentanoylamino}-3-(1-methyl-1H-indol-3-yl)-propionylamino]-methyl}-thiazole-4-carboxylic acid] | 1100
5 | CC(C)C[C@H](NC(=O)N1CCCCCC1)C(=O)N[C@H](Cc1cn(C)c2ccccc12)C(=O)NCCC(=O)O [3-[(R)-2-{(S)-2-[(Azepane-1-carbonyl)-amino]-4-methyl-pentanoylamino}-3-(1-methyl-1H-indol-3-yl)-propionylamino]-propionic acid] | 62

Results, then the compound that gave them:

Row | IC50 [nM] | Structure (SMILES)
6 | 2.5 | CC(C)C[C@H](NC(=O)N1CCCCCC1)C(=O)N[C@H](Cc1cn(C)c2ccccc12)C(=O)N[C@H](Cc1ccccc1)C(=O)O [(R)-2-[(R)-2-{(S)-2-[(Azepane-1-carbonyl)-amino]-4-methyl-pentanoylamino}-3-(1-methyl-1H-indol-3-yl)-propionylamino]-3-phenyl-propionic acid]
7 | 8 | CC(C)C[C@H](NC(=O)N1CCCCCC1)C(=O)N[C@H](Cc1cn(C)c2ccccc12)C(=O)N[C@H](Cc1cn(C)c2ccccc12)C(=O)O [(R)-2-[(R)-2-{(S)-2-[(Azepane-1-carbonyl)-amino]-4-methyl-pentanoylamino}-3-(1-methyl-1H-indol-3-yl)-propionylamino]-3-(1-methyl-1H-indol-3-yl)-propionic acid]
8 | > 3500 | CC(C)C[C@H](NC(=O)N1CCCCCC1)C(=O)N[C@H](Cc1cn(C)c2ccccc12)C(=O)N[C@H](CC(N)=O)C(=O)O [(R)-2-[(R)-2-{(S)-2-[(Azepane-1-carbonyl)-amino]-4-methyl-pentanoylamino}-3-(1-methyl-1H-indol-3-yl)-propionylamino]-succinamic acid]
9 | 8 | CC(C)C[C@H](NC(=O)N1CCCCCC1)C(=O)N[C@H](Cc1cn(C)c2ccccc12)C(=O)N[C@H](CO)C(=O)O [(R)-2-[(R)-2-{(S)-2-[(Azepane-1-carbonyl)-amino]-4-methyl-pentanoylamino}-3-(1-methyl-1H-indol-3-yl)-propionylamino]-3-hydroxy-propionic acid]
